Square brackets hold non-standard residues; d marks the D form. pY = N[C@@H](Cc1ccc(OP(=O)(O)O)cc1)C(=O)O
Legend:
Assay in all cases: pTyr-Var library bacterial peptide display kinase screen (enrichment scores)
[1] = tested on: Fer kinase domain; assay type: biochemical, mouse; settings: sheet "Fer";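 further: log2 fold change in enrichment of variant over reference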
[2] = target: c-Src kinase domain (Homo sapiens, UniProt P12931); assay type: biochemical; settings: sheet "Src";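 further: log2 fold change in enrichment of variant over reference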
[3] = tested on: EPHB2 kinase domain; assay type: biochemical, human; settings: sheet EPHB2; effect of variant peptide relative to its reference peptide in the pTyr-Var library screen (enrichment scores);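 further: log2 fold change in enrichment of variant over reference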
[4] = target: T1, c-Abl kinase domain (Mus musculus, UniProt P00520); assay type: biochemical;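 further: log2 fold change in enrichment of variant over reference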
T1 sequence (P00520 242-493 limits assumed): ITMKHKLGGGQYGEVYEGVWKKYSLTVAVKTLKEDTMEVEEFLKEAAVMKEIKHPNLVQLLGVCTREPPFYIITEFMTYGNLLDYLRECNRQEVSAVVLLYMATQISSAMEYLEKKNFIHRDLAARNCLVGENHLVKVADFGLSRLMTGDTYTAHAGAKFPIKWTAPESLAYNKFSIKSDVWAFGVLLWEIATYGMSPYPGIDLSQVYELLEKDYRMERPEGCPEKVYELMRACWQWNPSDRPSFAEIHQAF

[5] = tested on: EPHB1 kinase domain; assay type: biochemical, human; settings: for Screen (variant relative to reference peptide, measured in the pTyr-Var library screen): sheet "EPHB1", variant seq vs reference seq, bacterial peptide display enrichment; for Screen: sheet EPHB1, effect of the variant peptide relative to its reference peptide in the pTyr-Var library screen (enrichment scores)
[6] = variant peptide relative to its reference peptide, pTyr-Var library screen enrichment
[7] = variant peptide versus its reference peptide in the pTyr-Var library screen
[8] = fig5-data2, sheet "Abl", Screen for the variant/reference peptide pair, pTyr-Var library
[9] = value of the variant peptide against its reference peptide in the pTyr-Var library screen with Fer
[10] = sheet "Abl", effect of variant peptide relative to its reference peptide in pTyr-Var library screen (enrichment)
[11] = effect of the variant peptide relative to its reference peptide in the pTyr-Var library screen

ACCLLYHGDVV [TUBA4A_Y319_R320H]
Screen [1, 6]: 1.239 | Screen [2, 7]: -0.1128

ADARMYGVHPW [PLP1_Y207_L210H]
Screen [2, 7]: -0.8602 | Screen [3]: -2.321

ADRLEYSRTGL [MMUT_Y287_G284R]
Screen [3]: -0.9943

AGQEGYDRLRP [RAC1_Y64_D63G]
Screen [4, 8]: -0.6801

ALPGEYIPTVF [RAC1_Y32_F28L]
Screen [4, 8]: -1.258

APAHKYHGGGG [HBD_Y146_L142P]
Screen [4, 8]: 0.5925

ARVANYHRDGP [CAT_Y386_Q387H]
Screen [4, 8]: 0.869

AVEDQYFRVDC [FHL1_Y207_C209R_YF]
Screen [4, 8]: -2.172

Ac-QSLEKS[pY]ELLDGG-NH2 [ACTB_Y240_P243L]
Screen [4, 8]: -1.856

CLGNQYVNVMN [SLC3A1_Y461_R456C]
Screen (variant relative to reference peptide, measured in the pTyr-Var library screen) [5]: -0.4562

DDEVFYSPLSL [OTC_Y317_R320L]
Screen [1, 9]: 2.858 | Screen [2, 7]: 2.664

DDFDLYGGEKF [PTPN11_Y66_Y62D_YF]
Screen [1, 6]: 1.351 | Screen [4, 8]: -0.3703 | Screen [2, 7]: -0.3825

DLAHKYHGGGG [HBB_Y146_A141D]
Screen [4, 8]: -0.5192

DLGIQYKVLKP [CTNNA1_Y177_A179V]
Screen [4, 8]: 0.1591

DLSEVYKPCRK [CCDC93_Y176_R179C]
Screen [4, 8]: 0.05093

DNLSNYVFQGQ [GRIN2A_Y978_N976S]
Screen [5]: 0.2649

DTLLEYLENPK [CYCS_Y68_M66L]
Screen [4, 8]: -1.313

DWQQEYVLNES [TGM1_Y267_R264Q]
Screen [2, 7]: 1.018

DWRQEYVLNEP [TGM1_Y267_S272P]
Screen [2, 7]: 0.4859

EDKFMYSEFPQ [PTEN_Y240_F241S]
Screen [2, 7]: 0.2043

EGNEQYEGFCV [GRIA3_Y451_R450Q_YF]
Screen [1, 9]: 2.326

EKQLLYLENKT [FRK_Y132_S133L]
Screen [4, 8]: 1.576

ENFSEYQEISV [HEMGN_Y150_A154S]
Screen [4, 8]: 0.8508 | Screen [5]: 0.04896

ESMQSYDLDFP [UNC13B_Y243_D238E_YF]
Screen [4, 10]: 0.2086

ETCLAYMEKRI [TEKT1_Y118_R119M]
Screen [4, 10]: -0.666

ETELPYQELQG [TYROBP_Y91_S89L]
Screen [2, 7]: 0.7128

FCRHNYGAVES [HLA-DRB1_Y112_V114A_YF]
Screen [3]: -2.259

FDNSVYQKTTE [LDLR_Y828_P826S]
Screen [4, 8]: 1.184

FNDSAYNQQLI [ZPLD1_Y198_T197A_YF]
Screen [4, 10]: 1.136

FRTGHYLCNAC [GATA1_Y223_D218Y_YF]
Screen [4, 8]: 1.235

GDAMLYFPSVS [GPR143_Y177_A173D_YF]
Screen [4, 8]: 0.9829

GHLFAYNWISI [BEST1_Y227_D228N_YF]
Screen [1, 9]: -1.638

GNLLIYTKFGK [HGD_Y166_E168K]
Screen [4, 8]: 0.592 | Screen [5]: -0.9666 | Screen [2, 11]: -1.556

GPQSLYNGLVA [UCP2_Y79_R76Q]
Screen [2, 7]: 1.82

GRSTFYWPSPR [GAGE12J_Y10_R13S_YF]
Screen [4, 8]: -1.338

GRTGHYLCNAC [GATA1_Y223_D218G]
Screen [4, 8]: 0.2005

GVLDIYGFDIL [MYO1A_Y382_E385D]
Screen [2, 7]: 0.6089

HNELFYEAAEH [VANGL1_Y345_E347A_YF]
Screen [1, 6]: 1.287 | Screen [2, 7]: 1.947

KACKHYLTKRT [ZBTB5_Y118_T121K]
Screen [4, 10]: -3.546

KFFRVYQGQQP [MUTYH_Y494_V490F]
Screen [4, 8]: -1.003

KGNMFYENSFA [EGFR_Y113_R108K_YF]
Screen [1, 9]: -0.4996

KKFPDYIQIAR [SGMS2_Y59_M64R_YF]
Screen [4, 10]: 1.322 | Screen (variant relative to reference peptide, measured in the pTyr-Var library screen) [5]: -0.1665

KKHIPYSEHKS [CSNK1G2_Y206_R207S]
Screen [1, 9]: -1.379 | Screen [5]: -1.865

KLADIYQAELR [GFAP_Y116_V115I]
Screen [2, 11]: 1.355

KLPDAYEPLIL [G6PD_Y437_R439P]
Screen [1, 9]: 1.978

KNSSIYVVANI [VNN1_Y134_N131S]
Screen [4, 10]: 4.539

KPGLIYNKVNP [SPRED3_Y72_V71I]
Screen [4, 10]: -0.1763

KSVEEYANCHL [TF_Y593_P589S]
Screen [4, 10]: 0.8616

LESETYRRLLD [KRT12_Y429_I426S]
Screen [4, 8]: -1.592

LGNIVYSSLCG [BCOR_Y90_P85L]
Screen [1, 9]: 0.7069 | Screen [2, 11]: 0.02175

LIFTNYEVGKD [GSTP1_Y112_A114V_YF]
Screen [5]: 1.043

LITTLYSGFLG [KCNQ1_Y267_I268S]
Screen [2, 11]: 0.982

LNECHYGALIG [BPGM_Y92_R90C]
Screen [2, 11]: 2.509

LNPFIYSLRNC [OR1A2_Y288_W293C]
Screen [1, 9]: -1.075 | Screen [5]: -1.104 | Screen [2, 7]: -0.4787

LNPLFYSLRNK [OR5R1_Y290_I289F]
Screen [5]: -2.165 | Screen [2, 7]: -4.245

LNPLVYTLRNA [OR4C12_Y285_V283L]
Screen [2, 7]: 0.901

LTDLRYKVSGP [TTN_Y22641_L22646P]
Screen [4, 10]: -1.764

LTMAPYSSVSV [FAM81A_Y24_L29V]
Screen [1, 9]: 0.5529

MKGEFYRFLAE [YWHAG_Y131_D129E_YF]
Screen [4, 10]: 2.42

MSRDVYSTDCF [NTRK2_Y702_Y706C_YF]
Screen [2, 7]: -0.1963

MSSLFYANALF [HOXB7_Y6_T9A_YF]
Screen [1, 9]: -0.9977 | Screen [4, 8]: 1.131

NDQANYLLNTD [ADA_Y290_S291L]
Screen [4, 8]: -1.65

NSFKFYMSDDI [ATRX_Y204_C200S_YF]
Screen [4, 8]: 1.883

PFTDPYFDFEI [ZC3H18_Y371_A368T_YF]
Screen [2, 7]: 0.4384

PLDGEYFSLQI [TP53_Y327_T329S]
Screen [2, 7]: 0.4244

PLDGEYFTHQI [TP53_Y327_L330H]
Screen [2, 7]: -1.246

PLDGEYFTLQV [TP53_Y327_I332V]
Screen (variant relative to reference peptide, measured in the pTyr-Var library screen) [5]: -0.1216 | Screen [2, 7]: -0.8668

PMQMPYDSRWE [PDGFRA_Y582_L580M]
Screen [4, 8]: 0.7733

PNKAVYTKMMT [G6PD_Y401_E398K]
Screen [1, 9]: -3.207 | Screen [2, 11]: -2.964

PNRILYGDFWQ [MYH7_Y715_R719W]
Screen [2, 7]: -0.3786

PQGVSYIFTID [DCX_Y103_R102S_YF]
Screen [4, 8]: -1.987

PRNLIYFGEHP [TRPV6_Y201_C197R]
Screen [2, 7]: -3.508

PVQAAYQKLVA [HBB_Y131_V134L]
Screen [4, 8]: -1.01

QKPLGYFRVNL [GALE_Y104_D103G_YF]
Screen [4, 8]: -1.351

QMVRMYASSFM [AVPR2_Y124_G122R_YF]
Screen [2, 11]: -2.32

REGAKYVSHDA [ASS1_Y113_G117D]
Screen [4, 8]: 1.12

REGKIYEFNQV [ZNF665_Y162_H157R_YF]
Screen [1, 6]: -0.7739 | Screen [4, 10]: -1.605 | Screen ([2]; effect of the variant peptide against its reference peptide, seen in the pTyr-Var library screen): -1.072

RNLLIYTEFGK [HGD_Y166_G161R]
Screen [5]: 0.6934 | Screen [2, 11]: -0.2684

RREWFYEVIIA [BACE1_Y260_V265A_YF]
Screen [1, 9]: -1.406

RRIHSYRGRLW [VHL_Y112_H115R]
Screen (variant relative to reference peptide, measured in the pTyr-Var library screen) [5]: -0.8094 | Screen [2, 7]: -2.396

RRNEIYEIKVD [LGR5_Y387_H383R]
Screen [2, 11]: -0.9028

SDPIIYTLENV [ADGRE1_Y534_I539V]
Screen [1, 9]: -0.559 | Screen [2, 11]: -0.05563

SHSMRYFSTAV [HLA-C_Y31_D33S]
Screen [4, 8]: 0.4242

SLMNQYVNKEF [RAB7A_Y28_K32E]
Screen [4, 8]: 1.901

SNKELYEKFMI [TTN_Y32175_T32171N_YF]
Screen [1, 6]: 0.5633 | Screen [2, 7]: 0.8077

SNKLTYGTVVF [ACOX1_Y275_M278V]
Screen [2, 11]: 0.3111

SSQTIYQRVEG [TFR2_Y23_V22I]
Screen (variant relative to reference peptide, measured in the pTyr-Var library screen) [5]: 1.306 | Screen [2, 7]: 1.445

TDHLQYFDSNK [ARAP1_Y359_R358Q]
Screen [4, 8]: 1.336

TESALYGCTVV [KIAA1804_Y724_L729V]
Screen [1, 9]: 0.07488 | Screen [2, 11]: -0.09726

TFGNLYGSRKQ [YIPF7_Y59_A54T_YF]
Screen [4, 10]: -3.299 | Screen [2, 7]: 0.7296

TLLPDYEDEEE [ZNF830_Y159_S154T]
Screen [4, 10]: 2.994

TTKGAYSLSVR [YES1_Y194_I198V]
Screen [4, 10]: 2.19

TVLWLYTGTRP [UGT1A1_Y337_R336L]
Screen [4, 10]: 0.619

TVLWQYTGTRP [UGT1A1_Y337_R336Q]
Screen [4, 10]: 0.7115

VASMFYTLVIP [OR8K3_Y277_I275M]
Screen [1, 9]: 0.3514

VCHELYNAIRD [PBRM1_Y54_T56A]
Screen [4, 8]: -0.5103

VFFDLYGGEKF [PTPN11_Y66_D61V_YF]
Screen [2, 7]: -0.4607

VHKKGYNKLNQ [ZNF676_Y98_E96K]
Screen [4, 10]: 1.586

VLALWYFFLTN [ZDHHC23_Y127_H132N_YF]
Screen [4, 10]: -3.327

VMAALYGRLFE [BTD_Y536_T532M_YF]
Screen [4, 8]: -0.5848 | Screen [2, 11]: 0.294

VMLENYSNLLS [ZFP69_Y109_V113L]
Screen (variant relative to reference peptide, measured in the pTyr-Var library screen) [5]: 0.4122

WCSNDYLGMSQ [ALAS2_Y199_R204Q]
Screen [5]: 0.6712

Source: PMC10065799, “High-throughput profiling of sequence recognition by tyrosine kinases and SH2 domains using bacterial peptide display” (eLife, 2023)
